From article PMC5514907, “Targeting of the breast cancer microenvironment with a potent and linkable oxindole based antiangiogenic small molecule” (Oncotarget, 2017)
Entries after “also recorded” stand apart in the source; their conditions may differ. Where two headings read alike, the source gives them in different places.

Legend:
[1] = Pharmacokinetic evaluation in blood by LC-MS/MS; format: in vivo, female NOD/SCID mice; conditions: for AUC(0-t) / Tmax / Cmax: 100 umol/kg; for AUC(0-t) / Cmax: ± S.D.; for AUC(0-t): read-out: AUC0-24
Protocol: The in vitro efficacy of SAP was followed by its pharmacokinetic evaluation in mice. Initially, the PK parameters of SAP were compared in an oral versus IP administration (Figure 3).
Figure 3 Pharmacokinetic evaluation of SAP Female NOD/SCID mice (n = 6) were dosed per os or IP with SAP (100 μmol/Kg) and blood samples were collected at selected time points. Drug levels of SAP were monitored by LC-MS/MS. The AUC for each treatment was calculated as a measure of drug exposure over time. TEXT PRINTED IN THE PICTURE: SAP: Cmax (μmol/L) (± S.D.): 0.2 (± 0.1) (Administration Route: per os; Dose (μmol/Kg): 100); tmax (h): 1 (Administration Route: per os; Dose (μmol/Kg): 100); AUC0-24 (± S.D.) (h) x (μmol/L): 2.5 (± 2.3) (Administration Route: per os; Dose (μmol/Kg): 100); Cmax (μmol/L) (± S.D.): 27 (± 3.6) (Administration Route: Intraperitoneal; Dose (μmol/Kg): 100); tmax (h): 0.25 (Administration Route: Intraperitoneal; Dose (μmol/Kg): 100); AUC0-24 (± S.D.) (h) x (μmol/L): 50.3 (± 15.3) (Administration Route: Intraperitoneal; Dose (μmol/Kg): 100)
All animal procedures were approved by the Bioethical Committee of BRFAA based on the European Directive 86/609. For pharmacokinetic studies, female NOD/SCID mice (Charles River, Italy) were used (8–10 weeks old, n = 6 per group). Dosing solutions of SAP (100 μmol/Kg) were prepared in 20% 2-hydroxypropyl β-Cyclodextrin in sterile water (HP-b-CD). SAP was administered intraperitoneally (IP) or orally and blood samples were collected and prepared as described previously.

VEGFR-2 [2] = target: T1, VEGFR-2 (Homo sapiens, UniProt P35968); test: Biochemical tyrosine kinase assay (trans-phosphorylation, GST-fusion protein); design: 789-end; purchased Sigma Aldrich K2643; conditions: in vitro kinase activity, ± SD
Target sequence in this assay (P35968 789-1356 limits assumed): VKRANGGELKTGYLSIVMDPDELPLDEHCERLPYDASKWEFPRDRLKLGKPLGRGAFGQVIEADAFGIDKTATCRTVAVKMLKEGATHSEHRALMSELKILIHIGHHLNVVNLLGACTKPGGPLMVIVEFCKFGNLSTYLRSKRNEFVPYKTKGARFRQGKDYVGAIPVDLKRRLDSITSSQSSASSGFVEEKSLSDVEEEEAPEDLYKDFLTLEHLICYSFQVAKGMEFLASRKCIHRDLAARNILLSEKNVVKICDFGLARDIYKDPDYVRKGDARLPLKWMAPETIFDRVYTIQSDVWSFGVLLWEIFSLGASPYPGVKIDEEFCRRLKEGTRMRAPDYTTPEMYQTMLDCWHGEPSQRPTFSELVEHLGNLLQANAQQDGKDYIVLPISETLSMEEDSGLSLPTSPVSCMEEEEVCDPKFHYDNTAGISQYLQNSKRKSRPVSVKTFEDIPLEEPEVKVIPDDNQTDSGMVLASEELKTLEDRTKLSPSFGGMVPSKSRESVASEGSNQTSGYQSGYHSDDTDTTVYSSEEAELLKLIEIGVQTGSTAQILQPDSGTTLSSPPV

HCC1954 xenograft [3] = conditions: HCC1954, 100 μmol/Kg/day IP; for average tumor size at d18: 18 days, vehicle 428 ± 101; for neo-angiogenesis upon sacrifice: d18; for average tumor weight upon sacrifice (d18): vehicle 0.26 ± 0.07
[4] = tested on: panel of BrCa cell lines and HUVEC; test: MTT cytotoxicity assay, summary over all cell lines; format: cell-based; conditions: Homo sapiens, range over six BrCa cell lines and HUVEC
MDA-MB-231 = test: Wound healing/migration assay; format: cell-based; conditions: various concentrations, 24 hours
T47D = test: MTT cytotoxicity assay; format: cell-based; conditions: Homo sapiens
KIT = target: T2, KIT (Homo sapiens, UniProt P10721); test: Biochemical tyrosine kinase assay (trans-phosphorylation, GST-fusion protein); conditions: in vitro kinase activity, ± SD
T2 construct: 544-end; purchased Sigma Aldrich C0624
T2 sequence (P10721 544-976 limits assumed): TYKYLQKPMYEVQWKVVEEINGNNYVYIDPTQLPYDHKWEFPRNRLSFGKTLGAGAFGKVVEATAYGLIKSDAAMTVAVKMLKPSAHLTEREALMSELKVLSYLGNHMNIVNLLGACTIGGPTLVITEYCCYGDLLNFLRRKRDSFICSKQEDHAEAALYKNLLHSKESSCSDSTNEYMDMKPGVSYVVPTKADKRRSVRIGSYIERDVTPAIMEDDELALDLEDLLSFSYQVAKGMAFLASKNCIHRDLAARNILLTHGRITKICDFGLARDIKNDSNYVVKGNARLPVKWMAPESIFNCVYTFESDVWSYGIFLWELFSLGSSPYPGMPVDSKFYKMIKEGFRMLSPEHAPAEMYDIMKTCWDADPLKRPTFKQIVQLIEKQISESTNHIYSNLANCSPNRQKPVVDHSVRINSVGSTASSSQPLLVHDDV

[5] = target: VEGFR-2, PDGFR-β, KIT, FLT3 and RET; test: Biochemical tyrosine kinase assay, RTK panel summary; conditions: range over the RTK targets of sunitinib; read-out: IC50 over most of the RTKs
HCC1954 xenograft [6] = test: Immunohistochemistry (Ki-67, CD31) of tumor sections; format: in vivo, NOD/SCID mice
EGFR = target: T3, EGFR (Homo sapiens, UniProt P00533); test: Biochemical tyrosine kinase assay (trans-phosphorylation, GST-fusion protein), negative control; conditions: in vitro kinase activity
T3 construct: 695-end; purchased Sigma Aldrich SRP5023
T3 sequence (P00533 695-1210 limits assumed): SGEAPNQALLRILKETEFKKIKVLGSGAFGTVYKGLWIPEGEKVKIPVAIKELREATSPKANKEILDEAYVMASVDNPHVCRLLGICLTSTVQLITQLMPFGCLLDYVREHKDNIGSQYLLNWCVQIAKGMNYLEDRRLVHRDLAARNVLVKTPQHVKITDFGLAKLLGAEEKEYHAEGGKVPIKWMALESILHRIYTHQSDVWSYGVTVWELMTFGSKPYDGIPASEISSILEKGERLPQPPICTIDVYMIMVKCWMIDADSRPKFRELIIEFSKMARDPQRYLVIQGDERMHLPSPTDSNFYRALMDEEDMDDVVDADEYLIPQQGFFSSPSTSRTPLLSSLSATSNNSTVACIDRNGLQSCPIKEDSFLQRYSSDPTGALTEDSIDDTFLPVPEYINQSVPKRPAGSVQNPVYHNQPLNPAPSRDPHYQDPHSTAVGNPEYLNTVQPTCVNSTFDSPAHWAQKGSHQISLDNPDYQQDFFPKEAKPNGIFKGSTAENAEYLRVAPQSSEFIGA

VEGFR-2 [7] = target: T1, VEGFR-2; test: Cellular ligand-dependent autophosphorylation assay (Western blot) in HUVEC; format: cell-based; design: host or cells: HUVEC; conditions: VEGF165 stimulated, ± SD
Target sequence in this assay (P35968 20-1356): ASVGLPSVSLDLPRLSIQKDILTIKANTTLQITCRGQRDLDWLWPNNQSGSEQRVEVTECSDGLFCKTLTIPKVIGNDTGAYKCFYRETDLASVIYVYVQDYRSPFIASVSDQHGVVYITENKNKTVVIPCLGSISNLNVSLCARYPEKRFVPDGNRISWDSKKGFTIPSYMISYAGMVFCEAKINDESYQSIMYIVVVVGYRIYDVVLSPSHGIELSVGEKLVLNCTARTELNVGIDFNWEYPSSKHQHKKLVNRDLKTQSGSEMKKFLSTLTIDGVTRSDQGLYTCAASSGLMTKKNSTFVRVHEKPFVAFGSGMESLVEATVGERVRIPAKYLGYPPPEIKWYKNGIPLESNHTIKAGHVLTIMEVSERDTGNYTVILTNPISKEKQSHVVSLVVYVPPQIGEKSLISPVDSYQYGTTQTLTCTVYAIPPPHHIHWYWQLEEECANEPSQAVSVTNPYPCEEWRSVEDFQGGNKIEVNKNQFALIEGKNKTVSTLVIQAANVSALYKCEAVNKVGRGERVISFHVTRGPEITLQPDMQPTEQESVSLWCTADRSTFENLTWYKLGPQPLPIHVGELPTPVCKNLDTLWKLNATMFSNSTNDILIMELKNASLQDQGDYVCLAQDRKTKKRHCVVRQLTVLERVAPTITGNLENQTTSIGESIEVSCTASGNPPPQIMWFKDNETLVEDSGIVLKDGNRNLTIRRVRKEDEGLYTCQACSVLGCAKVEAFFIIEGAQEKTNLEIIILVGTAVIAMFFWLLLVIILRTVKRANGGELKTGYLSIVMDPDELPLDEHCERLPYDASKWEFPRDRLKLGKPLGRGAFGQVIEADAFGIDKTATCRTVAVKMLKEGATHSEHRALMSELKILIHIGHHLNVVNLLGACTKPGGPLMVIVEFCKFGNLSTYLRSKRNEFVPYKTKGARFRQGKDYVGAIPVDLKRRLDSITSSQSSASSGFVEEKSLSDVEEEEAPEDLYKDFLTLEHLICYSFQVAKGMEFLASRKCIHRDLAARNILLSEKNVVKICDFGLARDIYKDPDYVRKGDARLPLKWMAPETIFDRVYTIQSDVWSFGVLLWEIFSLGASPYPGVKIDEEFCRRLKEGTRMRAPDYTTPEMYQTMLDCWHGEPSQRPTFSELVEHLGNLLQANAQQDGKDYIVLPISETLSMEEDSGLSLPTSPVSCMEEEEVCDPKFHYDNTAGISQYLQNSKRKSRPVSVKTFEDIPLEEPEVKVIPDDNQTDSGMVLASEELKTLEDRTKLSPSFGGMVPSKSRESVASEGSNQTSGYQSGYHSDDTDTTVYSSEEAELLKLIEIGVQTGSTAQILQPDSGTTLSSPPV

[8] = tested on: E0771 BrCa murine cell line; test: In vivo antitumor efficacy, syngeneic model, ectopic implantation; design: species or system C57BL/6 mice; conditions: 100 μmol/Kg daily IP
Source text: (§1) Despite the efficacy and favourable safety profile of SAP in xenografted models of primary BrCa, a critical question that remained was its evaluation in a more clinically relevant disease model of BrCa that would involve interaction of cancer with the immune system, which is crucial for the progression of the disease.

[9] = tested on: E0771 BrCa murine cell line; test: In vivo antitumor efficacy, syngeneic model, orthotopic implantation; design: species or system C57BL/6 mice; conditions: 100 μmol/Kg daily IP
Source text: as §1

[10] = tested on: Tg(kdrl:gfp)^s843 transgenic embryos; format: in vivo; conditions: for intersomitic vessel (ISV) formation / angiogenic sprouting at 48 hpf: treated from 24 to 48 hpf
MCF7 = test: MTT cytotoxicity assay; format: cell-based; conditions: Homo sapiens
ZR75-1 = test: MTT cytotoxicity assay; format: cell-based; conditions: Homo sapiens, ZR-75-1
SKBR3 = test: MTT cytotoxicity assay; format: cell-based; conditions: Homo sapiens, SK-BR-3
[11] = tested on: phosphorylation status of 18 kinases; test: In vivo kinase activity (PathScan intracellular signaling array) in HCC1954 tumor extracts; design: species or system NOD/SCID mice; conditions: HCC1954 tumors, d18
FLT3 = target: T4, FLT3 (Homo sapiens, UniProt P36888); test: Biochemical tyrosine kinase assay (trans-phosphorylation, GST-fusion protein); conditions: in vitro kinase activity, ± SD
T4 construct: 571–993; purchased Sigma Aldrich F6432

PDGFR-β [12] = target: T5, PDGFR-β (Homo sapiens, UniProt P09619); test: as above; conditions: in vitro kinase activity, ± SD; read-out: IC50 PDGFR-b
T5 construct: 557-end; purchased Sigma Aldrich G8671
T5 sequence (P09619 557-1106 limits assumed): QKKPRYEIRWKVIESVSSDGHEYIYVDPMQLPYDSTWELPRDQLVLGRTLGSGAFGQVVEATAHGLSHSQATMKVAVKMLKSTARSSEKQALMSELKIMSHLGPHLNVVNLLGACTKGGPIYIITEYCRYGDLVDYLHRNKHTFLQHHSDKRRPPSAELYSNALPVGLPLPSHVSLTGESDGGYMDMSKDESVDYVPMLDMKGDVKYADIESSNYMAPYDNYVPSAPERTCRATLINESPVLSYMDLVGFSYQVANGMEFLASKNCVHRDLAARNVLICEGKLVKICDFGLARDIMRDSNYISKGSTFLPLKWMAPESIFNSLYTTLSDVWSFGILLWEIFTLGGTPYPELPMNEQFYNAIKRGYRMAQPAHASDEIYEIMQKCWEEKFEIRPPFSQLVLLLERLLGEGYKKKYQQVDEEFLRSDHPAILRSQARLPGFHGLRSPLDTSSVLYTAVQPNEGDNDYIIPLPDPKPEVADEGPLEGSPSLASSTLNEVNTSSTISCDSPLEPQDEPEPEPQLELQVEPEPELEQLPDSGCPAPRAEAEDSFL

HUVEC = test: MTT cytotoxicity assay; format: cell-based; conditions: Homo sapiens
HCC1954 = test: MTT cytotoxicity assay; format: cell-based; conditions: Homo sapiens
PDGFR-β [13] = target: T6, PDGFR-β (Mus musculus, UniProt P05622); test: Cellular ligand-dependent autophosphorylation assay (Western blot) in NIH/3T3; format: cell-based; conditions: NIH/3T3, PDGF-BB stimulated, ± SD
T6 construct: host or cells: NIH/3T3
T6 sequence (P05622 32-1098): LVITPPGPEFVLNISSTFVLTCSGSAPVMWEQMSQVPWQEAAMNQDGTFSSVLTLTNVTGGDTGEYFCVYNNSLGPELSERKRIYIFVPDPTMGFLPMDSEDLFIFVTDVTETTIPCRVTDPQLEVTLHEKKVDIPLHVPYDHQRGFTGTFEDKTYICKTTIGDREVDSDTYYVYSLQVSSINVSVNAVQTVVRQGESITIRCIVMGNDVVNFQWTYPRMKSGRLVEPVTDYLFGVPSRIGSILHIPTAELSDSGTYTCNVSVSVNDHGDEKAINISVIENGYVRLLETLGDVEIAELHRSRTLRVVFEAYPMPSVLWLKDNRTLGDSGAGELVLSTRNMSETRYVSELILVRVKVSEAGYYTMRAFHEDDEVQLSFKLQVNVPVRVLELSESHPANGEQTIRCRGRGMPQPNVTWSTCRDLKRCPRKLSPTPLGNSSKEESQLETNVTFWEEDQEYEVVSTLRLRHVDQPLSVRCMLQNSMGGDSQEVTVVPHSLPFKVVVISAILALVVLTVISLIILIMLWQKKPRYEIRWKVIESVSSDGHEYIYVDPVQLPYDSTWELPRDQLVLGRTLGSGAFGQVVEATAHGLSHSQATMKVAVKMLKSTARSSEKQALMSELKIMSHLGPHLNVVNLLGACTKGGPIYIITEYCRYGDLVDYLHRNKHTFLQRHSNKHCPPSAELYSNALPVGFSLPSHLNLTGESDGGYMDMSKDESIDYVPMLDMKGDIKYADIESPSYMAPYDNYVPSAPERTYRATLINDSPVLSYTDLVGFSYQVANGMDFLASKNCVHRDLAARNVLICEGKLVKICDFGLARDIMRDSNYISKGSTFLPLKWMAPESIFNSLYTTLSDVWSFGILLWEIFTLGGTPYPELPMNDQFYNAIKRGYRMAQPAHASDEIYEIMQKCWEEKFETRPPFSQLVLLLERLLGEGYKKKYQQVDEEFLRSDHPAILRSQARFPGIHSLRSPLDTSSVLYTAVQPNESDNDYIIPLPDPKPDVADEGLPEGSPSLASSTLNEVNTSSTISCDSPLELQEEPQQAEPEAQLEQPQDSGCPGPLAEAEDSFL

RET = target: T7, RET (Homo sapiens, UniProt P07949); test: Biochemical tyrosine kinase assay (trans-phosphorylation, GST-fusion protein); conditions: in vitro kinase activity, ± SD
T7 construct: 658-end; purchased Sigma Aldrich R7782
T7 sequence (P07949 658-1063 limits assumed): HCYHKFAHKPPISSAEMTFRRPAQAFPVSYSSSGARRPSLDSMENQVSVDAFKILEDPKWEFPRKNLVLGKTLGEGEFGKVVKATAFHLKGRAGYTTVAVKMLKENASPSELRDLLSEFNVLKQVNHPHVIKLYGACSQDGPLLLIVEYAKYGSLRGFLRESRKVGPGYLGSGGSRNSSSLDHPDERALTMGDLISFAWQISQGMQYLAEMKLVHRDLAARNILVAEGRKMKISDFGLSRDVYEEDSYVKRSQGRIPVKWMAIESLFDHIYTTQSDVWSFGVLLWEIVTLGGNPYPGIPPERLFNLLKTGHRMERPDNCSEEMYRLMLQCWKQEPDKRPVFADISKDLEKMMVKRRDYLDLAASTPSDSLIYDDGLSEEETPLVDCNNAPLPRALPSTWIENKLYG

[14] = Whole embryo LC-MS/MS biodistribution (bioaccumulation); format: in vivo, zebrafish; conditions: 24h post drug exposure, 50 μM, data not shown
[15] = Hematotoxicity, blood analysis; conditions: 100 μmol/Kg daily IP, one week; vehicle 2.90 ± 0.8
[16] = Cardiotoxicity, echocardiography of LV function; format: in vivo, C57BL/6 female mice; conditions: for %FS (Fractional Shortening) at one week post treatment: 100 μmol/Kg daily IP, vehicle 46.34 ± 0.56
[17] = design: method as in PMID 26645560; conditions: IP, equimolar dose, previous results ref 18; cited from earlier work
in vivo [18] = conditions: female, NOD/SCID, mouse, blood, ip, 100 μmol/Kg
in vivo [19] = conditions: female, NOD/SCID, mouse, blood, ip, 100 μmol/Kg; remark: listed apart in the source
[20] = female, NOD/SCID, mouse, ip, intraperitoneal, blood
[21] = female, NOD/SCID, mouse, po, per os, blood

## Cc1[nH]c(/C=C2\C(=O)Nc3ccc(F)cc32)c(C)c1C(=O)NCCN1CCNCC1 [SAP]
[1]; female, NOD/SCID, mouse, ip, 100 μmol/Kg, intraperitoneal, 100 umol/Kg, blood, 8 h post-dose, read-out: C8 h
  concentration at 8 h: 0.93 ± 0.3 µM
[1]; female, NOD/SCID, mouse, ip, intraperitoneal, 100 μmol/Kg, blood
  AUC(0-t): 50.3 ± 15.3 µM·h
[1]; [20]
  Tmax: 15 min
  Cmax: 27 ± 3.6 µM
[1]; female, NOD/SCID, mouse, po, per os, 100 μmol/Kg, blood
  AUC(0-t): 2.5 ± 2.3 µM·h
[1]; [21]
  Tmax: 60 min
  Cmax: 0.2 ± 0.1 µM
[1]; intraperitoneal, 100 umol/Kg
  time for which concentrations of at least 0.1 μmol/L are sustained post-dose: more than 8 h
[1]; single dose 100 μmol/Kg, per os or IP
  signs of discomfort or overt toxicity in treated mice: No signs of discomfort or overt toxicity
VEGFR-2 [2]
  IC50: 0.075 µM
HCC1954 xenograft [3]
  average tumor size at d18: 76 ± 52 mm^3
  neo-angiogenesis upon sacrifice: only traces of newly formed blood vessels
  average tumor weight upon sacrifice (d18): 0.05 ± 0.02 g
[4]
  IC50: 6.5 to 15.8 µM
MDA-MB-231
  MDA-MB-231 migration in wound healing assay: inhibited MDA-MB-231 migration
T47D
  IC50: 6.5 µM
KIT
  IC50: 0.061 µM
[5]
  IC50: 0.061 to 0.102 µM
HCC1954 xenograft [6]; d18, vehicle 42.4 ± 8.3
  average number of CD31+ cells in tumor sections: 16.6 ± 7.1
HCC1954 xenograft [6]; d18, vehicle 82.3 ± 11.1
  Ki-67 assessed PI (proliferation index): 19.2 ± 4.9%
EGFR
  IC50: > 10 µM
VEGFR-2 [7]
  IC50: 0.052 ± 0.014 µM
[8]
  tumour growth versus vehicle: significant tumour growth inhibition
[9]
  tumour growth versus vehicle: significant tumour growth inhibition
[10]; 50 μM, 24h treatment
  toxic or off-target morphological phenotypes: No toxic or off-target morphological phenotypes
[10]; 50 μM
  intersomitic vessel (ISV) formation / angiogenic sprouting at 48 hpf: uniform GFP expression in intersomitic vessels; also recorded: minor ISV formation inhibition
[10]; 100 μM
  intersomitic vessel (ISV) formation / angiogenic sprouting at 48 hpf: inhibited angiogenic sprouting; also recorded: more profound
MCF7
  IC50: 10.3 µM
ZR75-1
  IC50: 14.1 µM
SKBR3
  IC50: 15.5 µM
[11]
  phosphorylation status of kinases in tumor extracts versus vehicle: marked downregulation of pErk1/2 (Thr202/Tyr204), pAkt (Ser473) and pGSK3 (Ser9)
FLT3
  IC50: 0.069 µM
PDGFR-β [12]
  IC50: 0.093 µM
HUVEC
  IC50: 14.2 µM
HCC1954
  IC50: 13.5 µM
PDGFR-β [13]
  IC50: 0.076 ± 0.022 µM
RET
  IC50: 0.102 µM
[14]
  uptake from fish embryos: ~50%
[15]
  white blood cell populations: 2.54 ± 1.0 × 10^3 cells
[16]
  %FS (Fractional Shortening) at one week post treatment: 42.38 ± 0.76%
[16]; before treatment
  %FS (Fractional Shortening), baseline measurement: 47.48 ± 0.91%

## CCN(CC)CCNC(=O)c1c(C)[nH]c(/C=C2\C(=O)Nc3ccc(F)cc32)c1C [sunitinib, reference compound]
HCC1954 xenograft [3]
  average tumor size at d18: 152 ± 57 mm^3
  neo-angiogenesis upon sacrifice: only traces of newly formed blood vessels
  average tumor weight upon sacrifice (d18): 0.07 ± 0.03 g
T47D
  IC50: 11.5 µM
[17]
  AUC0−24 h: 21.4 ± 3.6 h x μmol/L
  Cmax: 6.5 ± 0.9 µM
  Tmax: 15 min
[8]
  tumour growth versus vehicle: significant tumour growth inhibition
In vivo [18]
  concentration at 1 h: 10.8 ± 2.1 µM
[9]
  tumour growth versus vehicle: significant tumour growth inhibition
MCF7
  IC50: 11.2 µM
ZR75-1
  IC50: 11.4 µM
SKBR3
  IC50: 13.2 µM
[11]
  phosphorylation status of kinases in tumor extracts versus vehicle: marked downregulation of pErk1/2 (Thr202/Tyr204), pAkt (Ser473) and pGSK3 (Ser9)
HCC1954
  IC50: 13.9 µM
In vivo [19]
  concentration at 1 h: 10.3 ± 3.7 µM
PDGFR-β [13]
  IC50: 0.072 ± 0.019 µM
[15]
  white blood cell populations: 2.24 ± 0.5 × 10^3 cells
[16]
  %FS (Fractional Shortening) at one week post treatment: 45.42 ± 0.11%
